Reference: patent US11104648B2, “Pyrazole derivative” (Zhejiang Research Institute of Chemical Industry Co., Ltd., priority 2018, dated 2021)
Read-outs that look alike come from different tables or passages of the source.

Legend:
Format in all cases: in vivo
[1] = tested on: Eggs of Tetranychus Cinnabarinus; assay: Activity assay of eggs of Tetranychus cinnabarinus (spray method, ovicidal); details: for pest or weed control at 5 µg/mL / pest or weed control at 2 µg/mL: Tetranychus cinnabarinus
Experimental: According to the solubility of the test compound, the crude drug was dissolved in N N-dimethylformamide, and then prepared into a test solution of the desired concentration with 1‰ Tween 80 aqueous solution. The content of N. N-dimethylformamide in the solution should not exceed 10%.
Spray method. The broad bean leaves with petioles were cut and inserted into a bottle with water. A certain number of female mites were placed, 24h later, adult mites were removed, and spray treatment was performed in 24 h. The experiment was repeated three times, and a blank control was set, and placed to an observation room (26±2° C., humidity 70%˜80%, 16h light per day) for culture. When the blank control group was incubated, the results were investigated. The non-incubated ones were used as death for investigation.

[2] = tested on: adult Tetranychus cinnabarinus; assay: Activity assay of adult Tetranychus cinnabarinus (whole-plant spray on bean seedlings); details: 48 h; for pest or weed control at 1.25 µg/mL: concentration 1.25 mg/L
Experimental: According to the solubility of the test compound, the crude drug was dissolved in N, N-dimethlfornamide, and then prepared into a test solution of the desired concentration with 1‰ Tween 80 aqueous solution. The content of N,N-dimethylformamide in the solution should not exceed 10%.
Two euphylla bean seedlings were taken, after inoculated with adult Tetranychus cinnabarinus and the base number was investigated, whole plants were sprayed with a hand-held sprayer. The experiment was repeated three times for each treatment, after treatment, placed in a standard observation room after treatment, to investigate the survival number of mites in 48 hand calculate the death rate.

[3] = tested on: Tetranychus cinnabarinus Nymphs; assay: Activity assay of Tetranychus cinnabarinus nymphs (spray on broad bean leaves)
Experimental: According to the solubility of the test compound, the crude drug was dissolved in N, N-dimethylformamide, and then prepared into a test solution of the desired concentration with 1‰ Tween 80 aqueous solution. The content of N,N-dimethylformamide in the solution should not exceed 10%.
The broad bean leaves with petioles were cut and inserted into a small bottle with water. A certain number of brightly colored, active female adult mites were placed, 24h later, adult mites were removed, and leaves with insufficient eggs were removed. When eggs were hatched and grew into nymphs, spray treatment was performed. The experiment was repeated three times, and a blank control was set, and placed to an observation room (26±2° C., humidity 70%˜80%, 16h light per day) for culture. 48 h later, the results were investigated. The nymphs were gently touched during investigation, and if no response, they were regarded as deaths.

[4] = concentration 5 mg/L, spray, non-incubated eggs counted as dead, read-out: ovicidal activity
[5] = concentration 2.5 mg/L, read-out: adult mite-killing activity
[6] = 48 h, concentration 2.5 mg/L, read-out: nymph-killing activity
[7] = concentration 2 mg/L, spray, read-out: ovicidal activity
[8] = eggs, concentration 2 mg/L, parallel determination, read-out: Death rate (%)
[9] = adult mites, parallel determination, read-out: Death rate (%)
[10] = read-out: adult mite-killing activity
[11] = 48 h, concentration 0.5 mg/L, read-out: nymph-killing activity
[12] = 48 h, nymphs, concentration 0.5 mg/L, parallel determination, read-out: Death rate (%)
[13] = 48 h, read-out: nymph-killing activity

SMILES | pest or weed control at 5 µg/mL [1, 4] [%] | pest or weed control at 2.5 µg/mL [2, 5] [%] | pest or weed control at 2.5 µg/mL [3, 6] [%] | other results
COC(=O)OC(C)O/C(=C(/C#N)c1ccc(C(C)(C)C)cc1)c1c(Cl)c(C)nn1C (racemic) [Compound 675] | – | – | – | Death rate (%) ([1]; eggs, concentration 2 mg/L, parallel determination): 100%
CC(=O)OCO/C(=C(/C#N)c1ccc(C(C)(C)C)cc1)c1cc(C)nn1C [Compound 1] | ≥ 90 | ≥ 90 | ≥ 95 | –
CCC(=O)OCO/C(=C(/C#N)c1ccc(C(C)(C)C)cc1)c1cc(C)nn1C [Compound 2] | ≥ 90 | ≥ 90 | ≥ 95 | –
CCCC(=O)OCO/C(=C(/C#N)c1ccc(C(C)(C)C)cc1)c1cc(C)nn1C [Compound 3] | ≥ 90 | ≥ 90 | ≥ 95 | –
Cc1cc(/C(OCOC(=O)C(C)C)=C(\C#N)c2ccc(C(C)(C)C)cc2)n(C)n1 [Compound 4] | ≥ 90 | ≥ 90 | ≥ 95 | –
Cc1cc(/C(OCOC(=O)C(C)(C)C)=C(\C#N)c2ccc(C(C)(C)C)cc2)n(C)n1 [Compound 5] | ≥ 90 | ≥ 90 | ≥ 95 | –
CCCCC(=O)OCO/C(=C(/C#N)c1ccc(C(C)(C)C)cc1)c1cc(C)nn1C [Compound 6] | ≥ 90 | ≥ 90 | ≥ 95 | –
Cc1cc(/C(OCOC(=O)CC(C)C)=C(\C#N)c2ccc(C(C)(C)C)cc2)n(C)n1 [Compound 7] | ≥ 90 | ≥ 90 | ≥ 95 | –
CC(C)(C)C(=O)OCOC(=C(C#N)c1ccc(C(C)(C)C)cc1)c1ccccc1C(F)(F)F [Compound 8-1, reference compound] | < 30 | < 80 | < 80 | pest or weed control at 2 µg/mL [1, 7]: 0%; pest or weed control at 2 µg/mL [1, 8]: 0%; pest or weed control at 1.25 µg/mL [2, 9]: 45%; pest or weed control at 1.25 µg/mL [2, 10]: < 50%; pest or weed control at 0.5 µg/mL [3, 11]: < 30%; pest or weed control at 0.5 µg/mL [3, 12]: 25%
CC(=O)OCOC(=C(C#N)c1ccc(C(C)(C)C)cc1)c1ccccc1C(F)(F)F [Compound 8-2, reference compound] | < 30 | < 80 | < 80 | pest or weed control at 2 µg/mL [1, 7]: 0%; pest or weed control at 2 µg/mL [1, 8]: 0%; pest or weed control at 1.25 µg/mL [2, 9]: 30%; pest or weed control at 1.25 µg/mL [2, 10]: < 50%; pest or weed control at 0.5 µg/mL [3, 11]: < 30%; pest or weed control at 0.5 µg/mL [3, 12]: 0%
CCCC(=O)OC(C)OC(=C(C#N)c1ccc(C(C)(C)C)cc1)c1ccccc1C(F)(F)F (stereo not shown) [Compound 8-3, reference compound] | < 30 | < 80 | < 80 | pest or weed control at 2 µg/mL [1, 7]: 0%; pest or weed control at 2 µg/mL [1, 8]: 0%; pest or weed control at 1.25 µg/mL [2, 9]: 45%; pest or weed control at 1.25 µg/mL [2, 10]: < 50%; pest or weed control at 0.5 µg/mL [3, 11]: < 30%; pest or weed control at 0.5 µg/mL [3, 12]: 30%
CCCC(=O)OCOC(=C(C#N)c1ccc(C(C)(C)C)cc1)c1ccccc1C(F)(F)F [Compound 8-4, reference compound] | < 30 | < 80 | < 80 | pest or weed control at 2 µg/mL [1, 7]: 0%; pest or weed control at 2 µg/mL [1, 8]: 0%; pest or weed control at 1.25 µg/mL [2, 9]: 50%; pest or weed control at 1.25 µg/mL [2, 10]: < 50%; pest or weed control at 0.5 µg/mL [3, 11]: < 30%; pest or weed control at 0.5 µg/mL [3, 12]: 15%
COCC(=O)OCO/C(=C(/C#N)c1ccc(C(C)(C)C)cc1)c1cc(C)nn1C [Compound 8] | ≥ 90 | ≥ 90 | ≥ 95 | –
Cc1cc(/C(OCOC(=O)C2CC2)=C(\C#N)c2ccc(C(C)(C)C)cc2)n(C)n1 [Compound 9] | ≥ 90 | ≥ 90 | ≥ 95 | –
CSCC(=O)OCO/C(=C(/C#N)c1ccc(C(C)(C)C)cc1)c1cc(C)nn1C [Compound 10] | ≥ 90 | ≥ 90 | ≥ 95 | –
Cc1cc(/C(OCOC(=O)C2CCCCC2)=C(\C#N)c2ccc(C(C)(C)C)cc2)n(C)n1 [Compound 11] | ≥ 90 | ≥ 90 | ≥ 95 | –
Cc1cc(/C(OCOC(=O)CF)=C(\C#N)c2ccc(C(C)(C)C)cc2)n(C)n1 [Compound 12] | – | – | – | pest or weed control at 5 µg/mL ([1]; read-out: ovicidal activity): ≥ 90%; pest or weed control at 2.5 µg/mL [2, 10]: ≥ 90%; pest or weed control at 2.5 µg/mL [3, 13]: ≥ 95%

SMILES | pest or weed control at 5 µg/mL [1, 4] [%] | pest or weed control at 2.5 µg/mL [2, 5] [%] | pest or weed control at 2.5 µg/mL [3, 6] [%] | other results
Cc1cc(/C(OCOC(=O)C(F)(F)F)=C(\C#N)c2ccc(C(C)(C)C)cc2)n(C)n1 [Compound 13] | ≥ 90 | ≥ 90 | ≥ 95 | –
Cc1cc(/C(OCOC(=O)c2ccccc2)=C(\C#N)c2ccc(C(C)(C)C)cc2)n(C)n1 [Compound 14] | ≥ 90 | ≥ 90 | ≥ 95 | –
Cc1cc(/C(OCOC(=O)Cc2ccccc2)=C(\C#N)c2ccc(C(C)(C)C)cc2)n(C)n1 [Compound 15] | ≥ 90 | ≥ 90 | – | pest or weed control at 2.5 µg/mL ([3]; concentration 2.5 mg/L, 48 h, read-out: nymph-killing activity): ≥ 95%
CCC(C)(C)C(=O)OCO/C(=C(/C#N)c1ccc(C(C)(C)C)cc1)c1cc(C)nn1C [Compound 16] | ≥ 90 | ≥ 90 | ≥ 95 | –
C=CC(=O)OCO/C(=C(/C#N)c1ccc(C(C)(C)C)cc1)c1cc(C)nn1C [Compound 17] | ≥ 90 | ≥ 90 | ≥ 95 | –
CC(=O)OC(C)O/C(=C(/C#N)c1ccc(C(C)(C)C)cc1)c1cc(C)nn1C (stereo not shown) [Compound 26] | ≥ 90 | ≥ 90 | ≥ 95 | –
CCC(=O)OC(C)O/C(=C(/C#N)c1ccc(C(C)(C)C)cc1)c1cc(C)nn1C (stereo not shown) [Compound 27] | ≥ 90 | ≥ 90 | ≥ 95 | –
CCCC(=O)OC(C)O/C(=C(/C#N)c1ccc(C(C)(C)C)cc1)c1cc(C)nn1C (stereo not shown) [Compound 28] | ≥ 90 | ≥ 90 | ≥ 95 | –
Cc1cc(/C(OC(C)OC(=O)C(C)C)=C(\C#N)c2ccc(C(C)(C)C)cc2)n(C)n1 (stereo not shown) [Compound 29] | ≥ 90 | ≥ 90 | ≥ 95 | –
Cc1cc(/C(OC(C)OC(=O)C(C)(C)C)=C(\C#N)c2ccc(C(C)(C)C)cc2)n(C)n1 (stereo not shown) [Compound 30] | ≥ 90 | ≥ 90 | ≥ 95 | –
CCCCC(=O)OC(C)O/C(=C(/C#N)c1ccc(C(C)(C)C)cc1)c1cc(C)nn1C (stereo not shown) [Compound 31] | ≥ 90 | ≥ 90 | ≥ 95 | –
Cc1cc(/C(OC(C)OC(=O)CC(C)C)=C(\C#N)c2ccc(C(C)(C)C)cc2)n(C)n1 (stereo not shown) [Compound 32] | ≥ 90 | ≥ 90 | ≥ 95 | –
COCC(=O)OC(C)O/C(=C(/C#N)c1ccc(C(C)(C)C)cc1)c1cc(C)nn1C (stereo not shown) [Compound 33] | ≥ 90 | ≥ 90 | ≥ 95 | –
Cc1cc(/C(OC(C)OC(=O)C2CC2)=C(\C#N)c2ccc(C(C)(C)C)cc2)n(C)n1 (stereo not shown) [Compound 34] | ≥ 90 | ≥ 90 | ≥ 95 | –
CSCC(=O)OC(C)O/C(=C(/C#N)c1ccc(C(C)(C)C)cc1)c1cc(C)nn1C (stereo not shown) [Compound 35] | ≥ 90 | ≥ 90 | ≥ 95 | –
Cc1cc(/C(OC(C)OC(=O)C2CCCCC2)=C(\C#N)c2ccc(C(C)(C)C)cc2)n(C)n1 (stereo not shown) [Compound 36] | ≥ 90 | ≥ 90 | ≥ 95 | –
Cc1cc(/C(OC(C)OC(=O)CF)=C(\C#N)c2ccc(C(C)(C)C)cc2)n(C)n1 (stereo not shown) [Compound 37] | – | – | – | pest or weed control at 5 µg/mL ([1]; read-out: ovicidal activity): ≥ 90%; pest or weed control at 2.5 µg/mL [2, 10]: ≥ 90%; pest or weed control at 2.5 µg/mL [3, 13]: ≥ 95%
